From patent US20200131142A1, “FARNESOID X RECEPTOR AGONISTS AND USES THEREOF” (Metacrine, Inc., priority 2017, published 2020)

Target: T1, hFXR (Homo sapiens, UniProt Q96RI1)
T1 construct: expressed in transfected cells; host or cells: CV-1 cells
T1 sequence (Q96RI1 1-486): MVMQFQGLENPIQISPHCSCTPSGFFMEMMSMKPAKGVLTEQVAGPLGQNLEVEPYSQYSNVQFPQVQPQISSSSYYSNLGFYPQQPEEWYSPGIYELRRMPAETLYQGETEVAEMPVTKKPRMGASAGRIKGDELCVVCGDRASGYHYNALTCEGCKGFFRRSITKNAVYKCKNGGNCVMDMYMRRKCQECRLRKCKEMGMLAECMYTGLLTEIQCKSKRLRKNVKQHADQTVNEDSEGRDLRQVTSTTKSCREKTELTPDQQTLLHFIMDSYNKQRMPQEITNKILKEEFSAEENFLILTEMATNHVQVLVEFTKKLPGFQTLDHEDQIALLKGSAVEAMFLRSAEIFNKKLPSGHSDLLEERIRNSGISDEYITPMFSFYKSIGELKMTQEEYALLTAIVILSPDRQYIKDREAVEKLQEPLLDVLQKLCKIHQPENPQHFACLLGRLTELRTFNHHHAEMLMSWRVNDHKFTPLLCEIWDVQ
T1 sequence (P19793 1-462 partner): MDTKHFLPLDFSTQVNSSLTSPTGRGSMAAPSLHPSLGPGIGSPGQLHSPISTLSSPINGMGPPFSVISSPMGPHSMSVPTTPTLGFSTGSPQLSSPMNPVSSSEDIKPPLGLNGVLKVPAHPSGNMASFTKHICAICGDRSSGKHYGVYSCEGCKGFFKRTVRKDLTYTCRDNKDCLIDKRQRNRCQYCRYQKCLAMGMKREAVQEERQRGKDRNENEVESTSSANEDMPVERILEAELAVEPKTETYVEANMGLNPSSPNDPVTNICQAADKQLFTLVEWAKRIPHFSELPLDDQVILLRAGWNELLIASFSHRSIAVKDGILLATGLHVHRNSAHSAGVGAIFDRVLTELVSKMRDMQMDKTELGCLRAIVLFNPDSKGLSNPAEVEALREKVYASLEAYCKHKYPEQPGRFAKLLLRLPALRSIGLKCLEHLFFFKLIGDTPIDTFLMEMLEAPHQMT
Assay: In Vitro FXR Assay (TK): hFXR/hRXR TK-ECRE-luc reporter in transfected CV-1 cells
Assay type: cell-based
Settings: 18 hrs incubation, luminescence, compounds with maximum efficacy <25% of the Fexarmine control classified as '+'
Procedure, shortened: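 CV-1, DMEM/10% charcoal-stripped FBS, 37 °C 5% CO2. Transfection O/N: hFXR + hRXR + TK-ECRE-luc + pCMX-YFP. Cpds (DMSO serial dil.) 18 h; lyse, read luminescence.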

SMILES | EC50
COc1ccc([C@H]2CC[C@H](CN(c3cccc(COc4nccs4)c3)C(=O)[C@H]3CC[C@H](O)CC3)CC2)cc1C [Compound 17, trans-4-Hydroxy-N-((trans-4-(4-methoxy-3-methylphenyl)cyclohexyl)methyl)-N-(3-((thiazol-2-yloxy)methyl)phenyl)cyclohexanecarboxamide] | ≤ 250 nM
COc1ccc([C@H]2CC[C@H](CN(c3cccc(-c4ncc(C)s4)c3)C(=O)[C@H]3CC[C@H](O)CC3)CC2)cc1C [Compound 7.03, trans-4-Hydroxy-N-((trans-4-(4-methoxy-3-metthylphenyl)cyclohexyl)methyl)-N-(3-(5-methylthiazol-2-yl)phenyl)cyclohexanecarboxamide] | ≥ 1000 nM
COc1ccc(C23CCC(CN(c4cc(-c5cnc(C6CC6)s5)ccn4)C(=O)[C@H]4CC[C@H](O)CC4)(CC2)CC3)cc1C [Compound 6.05, trans-N-(4-(2-Cyclopropylthiazol-5-yl)pyridin-2-yl)-4-hydroxy-N-((4-(4-methoxy-3-methylphenyl)bicyclo[2.2.2]octan-1-yl)methyl)cyclohexanecarboxamide] | ≤ 250 nM
COc1ccc([C@H]2CC[C@H](CN(c3cc(-c4cnc(C5CC5)s4)ccn3)C(=O)[C@H]3CC[C@H](O)CC3)CC2)cc1C [Compound 6.04, trans-N-(4-(2-cyclopropylthiazol-5-yl)pyridin-2-yl)-4-hydroxy-N-((trans-4-(4-methoxy-3-methylphenyl)cyclohexyl)methyl) cyclohexanecarboxamide] | ≤ 250 nM
COc1ccc([C@H]2CC[C@H](CN(c3cccc(-c4cnc(N(C)C)s4)c3)C(=O)[C@H]3CC[C@H](O)CC3)CC2)cc1C [Compound 7.13, trans-N-(3-(2-(Dimethylamino)thiazol-5-yl)phenyl)-4-hydroxy-N-((trans-4-(4-methoxy-3-methylphenyl)cyclohexyl)methyl) cyclohexanecarboxamide] | ≤ 250 nM
COc1ccc([C@H]2CC[C@H](CN(c3cc(-c4cnc(C5CC5)s4)ccn3)C(=O)[C@H]3CC[C@H](O)CC3)CC2)nc1C#N [Compound 9.23, trans-N-((trans-4-(6-Cyano-5-methoxypyridin-2-yl)cyclohexyl)methyl)-N-(4-(2-cyclopropylthiazol-5-yl)pyridin-2-yl)-4-hydroxycyclohexanecarboxamide] | ≤ 250 nM
COc1ccc([C@H]2CC[C@H](CN(c3cccc(-c4cnc(C)s4)c3)C(=O)[C@H]3CC[C@H](O)CC3)CC2)cc1C [Compound 6.03, trans-4-Hydroxy-N-((trans-4-(4-methoxy-3-methylphenyl)cyclohexyl)methyl)-N-(3-(2-methylthiazol-5-yl)phenyl)cyclohexanecarboxamide] | ≤ 250 nM
COc1ncc(-c2cccc(N(C[C@H]3CC[C@H](c4ccc(OC)c(C)c4)CC3)C(=O)[C@H]3CC[C@H](N)CC3)c2)s1 [Compound 13.01, trans-4-Amino-N-((trans-4-(4-methoxy-3-methylphenyl)cyclohexyl)methyl)-N-(3-(2-methoxythiazol-5-yl)phenyl)cyclohexanecarboxamide] | ≥ 1000 nM
COc1ncc(-c2cccc(N(C[C@H]3CC[C@H](c4ccc(OC)c(C)n4)CC3)C(=O)[C@H]3CC[C@H](O)CC3)c2)s1 [Compound 9.02, trans-4-Hydroxy-N-((trans-4-(5-methoxy-6-methylpyridin-2-yl)cyclohexyl)methyl)-N-(3-(2-methoxythiazol-5-yl)phenyl)cyclohexanecarboxamide] | ≤ 250 nM
COc1ccc(C23CCC(CN(c4cccc(-c5cnc(C6CC6)s5)c4)C(=O)[C@H]4CC[C@H](O)CC4)(CC2)CC3)cc1C [Compound 10, trans-N-(3-(2-Cyclopropylthiazol-5-yl)phenyl)-4-hydroxy-N-((4-(4-methoxy-3-methylphenyl)bicyclo[2.2.2]octan-1-yl)methyl)cyclohexanecarboxamide] | ≤ 250 nM
COc1ccc([C@H]2CC[C@H](CN(c3cccc(-c4cnc(C(C)C)s4)c3)C(=O)[C@H]3CC[C@H](O)CC3)CC2)cc1C [Compound 7.06] | ≤ 250 nM
COc1ncc(-c2cccc(N(C[C@H]3CC[C@H](c4ccc5c(c4)OCO5)CC3)C(=O)[C@H]3CC[C@H](O)CC3)c2)s1 [Compound 9.14, trans-N-((trans-4-(Benzo[d][1,3]dioxol-5-yl)cyclohexyl)methyl)-4-hydroxy-N-(3-(2-methoxythiazol-5-yl)phenyl)cyclohexanecarboxamide] | ≤ 250 nM
COc1ccc([C@H]2CC[C@H](CN(c3cc(-c4cnc(C(C)C)s4)ccn3)C(=O)[C@H]3CC[C@H](O)CC3)CC2)nc1C [Compound 9.29, trans-4-Hydroxy-N-(4-(2-isopropylthiazol-5-yl)pyridin-2-yl)-N-((trans-4-(5-methoxy-6-methylpyridin-2-yl)cyclohexyl)methyl)cyclohexanecarboxamide] | ≤ 250 nM
COc1ncc(-c2cccc(N(C[C@H]3CC[C@H](c4ccc(OC)c(C)c4)CC3)C(=O)[C@H]3CC[C@@H](O)CC3)c2)s1 [Compound 5, cis-4-Hydroxy-N-((trans-4-(4-methoxy-3-methylphenyl)cyclohexyl)methyl)-N-(3-(2-methoxythiazol-5-yl)phenyl)cyclohexanecarboxamide] | ≤ 250 nM
COc1ccc([C@H]2CC[C@H](CN(c3cccc(-c4cnc(CO)s4)c3)C(=O)[C@H]3CC[C@H](O)CC3)CC2)cc1C [Compound 7.19, trans-4-Hydroxy-N-(3-(2-(hydroxymethyl)thiazol-5-yl)phenyl)-N-((trans-4-(4-methoxy-3-methylphenyl)cyclohexyl)methyl) cyclohexanecarboxamide] | 250 to 1000 nM
COc1ccc([C@H]2CC[C@H](CN(c3cccc(-c4cnc(C5CC5)s4)c3)C(=O)[C@H]3CC[C@H](N(C)C)CC3)CC2)cc1C [Compound 13, trans-N-(3-(2-Cyclopropylthiazol-5-yl)phenyl)-4-(dimethylamino)-N-((trans-4-(4-methoxy-3-methylphenyl)cyclohexyl)methyl) cyclohexanecarboxamide] | ≥ 1000 nM
COC(=O)c1ncc(-c2cccc(N(C[C@H]3CC[C@H](c4ccc(OC)c(C)c4)CC3)C(=O)[C@H]3CC[C@H](O)CC3)c2)s1 [Compound 7.27, Methyl 5-(3-(trans-4-hydroxy-N-((trans-4-(4-methoxy-3-methylphenyl)cyclohexyl)methyl)cyclohexanecarboxamido)phenyl)thiazole-2-carboxylate] | 250 to 1000 nM
COc1ncc(-c2cccc(N(C[C@H]3CC[C@H](c4ccc(OC)c(C)c4)CC3)C(=O)[C@H]3CC[C@H](C)CC3)c2)s1 [Compound 9.31, trans-N-((trans-4-(4-Methoxy-3-methylphenyl)cyclohexyl)methyl)-N-(3-(2-methoxythiazol-5-yl)phenyl)-4-methylcyclohexanecarboxamide] | ≤ 250 nM
COc1ccc([C@H]2CC[C@H](CN(c3cccc(-c4cnc(N5CCCC5)s4)c3)C(=O)[C@H]3CC[C@H](O)CC3)CC2)cc1C [Compound 6, trans-4-Hydroxy-N-((trans-4-(4-methoxy-3-methylphenyl)cyclohexyl)methyl)-N-(3-(2-(pyrrolidin-1-yl)thiazol-5-yl)phenyl)cyclohexanecarboxamide] | ≤ 250 nM
COc1ccc([C@H]2CC[C@H](CN(c3cccc(-c4cnc(S(C)(=O)=O)s4)c3)C(=O)[C@H]3CC[C@H](O)CC3)CC2)cc1C [Compound 7.12, trans-4-Hydroxy-N-((trans-4-(4-methoxy-3-methtylphenyl)cyclohexyl)methyl)-N-(3-(2-(methylsulfonyl)thiazol-5-yl)phenyl)cyclohexanecarboxamide] | 250 to 1000 nM
COc1ncc(-c2cccc(N(C[C@@H]3CC[C@@H](c4ccc(OC)c(C)c4)C(C)C3)C(=O)[C@H]3CC[C@H](O)CC3)c2)s1 (stereo partly drawn) [Compound 9.12, trans-4-Hydroxy-N-((trans-4-(4-methoxy-3-methylphenyl)-3-methylcyclohexyl)methyl)-N-(3-(2-methoxythiazol-5-yl)phenyl)cyclohexanecarboxamide] | ≤ 250 nM
COc1ccc([C@H]2CC[C@H](CN(c3cccc(C#Cc4cscn4)c3)C(=O)[C@H]3CC[C@H](O)CC3)CC2)cc1C [Compound 8, trans-4-Hydroxy-N-((trans-4-(4-methoxy-3-methylphenyl)cyclohexyl)methyl)-N-(3-(thiazol-4-ylethynyl)phenyl)cyclohexanecarboxamide] | ≤ 250 nM
COc1ccc([C@H]2CC[C@H](CN(c3cccc(-c4cnc(O)s4)c3)C(=O)[C@H]3CC[C@H](O)CC3)CC2)cc1C [Compound 3, trans-4-Hydroxy-N-(3-(2-hydroxythiazol-5-yl)phenyl)-N-((trans-4-(4-methoxy-3-methylphenyl)cyclohexyl)methyl) cyclohexanecarboxamide] | 250 to 1000 nM
